Source: ChEMBL document CHEMBL3091300, “Truncated and constrained helical analogs of antimicrobial esculentin-2EM” (Bioorg Med Chem Lett, 2013)
Values after ≈ are worked out from the molar mass of the structure shown. *1 amine or outer side, *2 acyl side, *3 side chain or, on linkers, in order; H or OH if unused. Where a SMILES comes first, the peptide text is derived from it. Bridges are numbered along the chain shown (N, C = ends). [ ]: non-standard residue; d: D form. Nle(6-ylidene) = O=C([C@H](CCCC=[*:3])N[*:1])[*:2]; S5 = C=CCCC[C@](C)(N)C(=O)O

Key:
Bacillus spizizenii = assay: Antibacterial activity against Bacillus subtilis ATCC 6633 assessed as growth inhibition after 24 hrs by broth microdilution method; format: functional; conditions: ATCC 6633, 24 h
Klebsiella pneumoniae = assay: Antibacterial activity against Klebsiella pneumoniae ATCC 10031 assessed as growth inhibition after 24 hrs by broth microdilution method; format: functional; conditions: ATCC 10031, 24 h
Salmonella typhimurium = assay: Antibacterial activity against Salmonella typhimurium ATCC 14028 assessed as growth inhibition after 24 hrs by broth microdilution method; format: functional, Salmonella enterica subsp. enterica serovar Typhimurium; conditions: Salmonella enterica, ATCC 14028, 24 h
Proteus mirabilis = assay: Antibacterial activity against Proteus mirabilis ATCC 25933 assessed as growth inhibition after 24 hrs by broth microdilution method; format: functional; conditions: ATCC 25933, 24 h
[1] = Drug metabolism assessed as trypsin (unknown origin)-mediated digestion at 0.09 uM after 15 mins by HPLC analysis; format: ADME; conditions: human, 0.25 h
Escherichia coli = assay: Antibacterial activity against Escherichia coli ATCC 25922 assessed as growth inhibition after 24 hrs by broth microdilution method; format: functional; conditions: ATCC 25922, 24 h
Pseudomonas aeruginosa = assay: Antibacterial activity against Pseudomonas aeruginosa ATCC 27853 assessed as growth inhibition after 24 hrs by broth microdilution method; format: functional; conditions: ATCC 27853, 24 h
Staphylococcus aureus = assay: Antibacterial activity against Staphylococcus aureus ATCC 6538p assessed as growth inhibition after 24 hrs by broth microdilution method; format: functional
[2] = test system: Staphylococcus epidermidis; assay: Antibacterial activity against Staphylococcus epidermidis ATCC 12228 assessed as growth inhibition after 24 hrs by broth microdilution method; format: functional; conditions: ATCC 12228, 24 h
Shigella dysenteriae = assay: Antibacterial activity against Shigella dysenteriae ATCC 9752 assessed as growth inhibition after 24 hrs by broth microdilution method; format: functional; conditions: ATCC 9752, 24 h
[3] = Drug metabolism assessed as trypsin (unknown origin)-mediated digestion by measuring half life at 0.09 uM by HPLC analysis; format: ADME; conditions: human
[4] = Drug metabolism assessed as trypsin (unknown origin)-mediated digestion by measuring compound remaining at 0.09 uM after 60 mins by HPLC analysis; format: ADME; conditions: human, read-out: Stability

Question: Which MIC (Bacillus spizizenii) does the source give for Ac-TLKQFAKGVGKWLVK-NH2 here?
Answer: 200 µg/mL

Question: And the MIC (Klebsiella pneumoniae)?
Answer: > 200 µg/mL

Question: What about the MIC (Salmonella typhimurium) of the same compound?
Answer: > 200 µg/mL

Question: And the MIC (Proteus mirabilis)?
Answer: > 200 µg/mL

Question: And the Drug metabolism [1]?
Answer: Active

Question: What about the MIC (Escherichia coli) of the same compound?
Answer: 200 µg/mL

Question: And the MIC (Pseudomonas aeruginosa)?
Answer: > 200 µg/mL

Question: What about the MIC (Staphylococcus aureus) of the same compound?
Answer: 100 µg/mL

Question: What about the MIC [2] of the same compound?
Answer: > 200 µg/mL

Question: And the MIC (Shigella dysenteriae)?
Answer: > 200 µg/mL

Question: With `CC(=O)N[C@H](C(=O)N[C@@H](CC(C)C)C(=O)N[C@@H](CCCCN)C(=O)N[C@@H](CCC(N)=O)C(=O)N[C@@H](Cc1ccccc1)C(=O)N[C@@]1(C)CCC/C=C\CCC[C@@H](C(=O)N[C@@H](CCCCN)C(=O)N[C@@H](CC(=O)O)C(=O)N[C@@H](CC(C)C)C(=O)N[C@H](C(=O)N[C@@H](CCCCN)C(N)=O)C(C)C)NC(=O)[C@H](Cc2c[nH]c3ccccc23)NC(=O)CNC(=O)[C@H](CCCCN)NC1=O)[C@@H](C)O` (Ac-TLKQF[S5]KGW[Nle(6-ylidene)]KDLVK-NH2; staple (Z) 6-10) as the compound, how does the MIC (Bacillus spizizenii) read?
Answer: 6.25 µg/mL (≈ 3.35 µM)

Question: What about the MIC (Klebsiella pneumoniae) of the same compound?
Answer: 50 µg/mL (≈ 26.8 µM)

Question: What about the half-life at 0.09 µM [3] of the same compound?
Answer: 0.617 h

Question: And the remaining at 1 h, 0.09 µM [4]?
Answer: 75%

Question: What about the MIC (Salmonella typhimurium) of the same compound?
Answer: > 200 µg/mL

Question: What about the MIC (Proteus mirabilis) of the same compound?
Answer: > 200 µg/mL

Question: And the MIC (Escherichia coli)?
Answer: 100 µg/mL (≈ 53.5 µM)

Question: And the MIC (Pseudomonas aeruginosa)?
Answer: 200 µg/mL (≈ 107 µM)

Question: What about the MIC (Staphylococcus aureus) of the same compound?
Answer: 6.25 µg/mL (≈ 3.35 µM)

Question: What about the MIC [2] of the same compound?
Answer: > 200 µg/mL

Question: What about the MIC (Shigella dysenteriae) of the same compound?
Answer: 50 µg/mL (≈ 26.8 µM)

Question: For Ac-GILDTLKQFAKGVGKWLVKGAAQ-NH2, which MIC (Bacillus spizizenii) is on record?
Answer: 50 µg/mL

Question: And the MIC (Klebsiella pneumoniae)?
Answer: > 200 µg/mL

Question: What about the MIC (Salmonella typhimurium) of the same compound?
Answer: > 200 µg/mL

Question: What about the MIC (Proteus mirabilis) of the same compound?
Answer: > 200 µg/mL

Question: What about the Drug metabolism [1] of the same compound?
Answer: Active

Question: And the MIC (Escherichia coli)?
Answer: > 200 µg/mL

Question: And the MIC (Pseudomonas aeruginosa)?
Answer: > 200 µg/mL

Question: And the MIC (Staphylococcus aureus)?
Answer: 100 µg/mL

Question: What about the MIC [2] of the same compound?
Answer: > 200 µg/mL

Question: And the MIC (Shigella dysenteriae)?
Answer: > 200 µg/mL

Question: Which results are given for `CC(=O)N[C@H](C(=O)N[C@@H](CC(C)C)C(=O)N[C@@H](CCCCN)C(=O)N[C@@H](CCC(N)=O)C(=O)N[C@@H](Cc1c[nH]c2ccccc12)C(=O)N[C@@]1(C)CCC/C=C\CCC[C@@H](C(=O)N[C@@H](CCCCN)C(=O)N[C@@H](CC(=O)O)C(=O)N[C@@H](CC(C)C)C(=O)N[C@H](C(=O)N[C@@H](CCCCN)C(N)=O)C(C)C)NC(=O)[C@H](C(C)C)NC(=O)CNC(=O)[C@H](CCCCN)NC1=O)[C@@H](C)O` (Ac-TLKQW[S5]KGV[Nle(6-ylidene)]KDLVK-NH2; staple (Z) 6-10)?
Answer: MIC (Bacillus spizizenii): 6.25 µg/mL (≈ 3.43 µM); MIC (Klebsiella pneumoniae): 50 µg/mL (≈ 27.5 µM); half-life at 0.09 µM [3]: 1.18 h; remaining at 1 h, 0.09 µM [4]: > 90%; MIC (Salmonella typhimurium): > 200 µg/mL; MIC (Proteus mirabilis): > 200 µg/mL; MIC (Escherichia coli): 100 µg/mL (≈ 54.9 µM); MIC (Pseudomonas aeruginosa): > 200 µg/mL; MIC (Staphylococcus aureus): 6.25 µg/mL (≈ 3.43 µM); MIC [2]: 100 µg/mL (≈ 54.9 µM); MIC (Shigella dysenteriae): 50 µg/mL (≈ 27.5 µM)

Question: With `CC(=O)N[C@H](C(=O)N[C@@H](CC(C)C)C(=O)N[C@@H](CCCCN)C(=O)N[C@@H](CCC(N)=O)C(=O)N[C@@H](Cc1ccccc1)C(=O)N[C@@]1(C)CCC/C=C\CCC[C@@H](C(=O)N[C@@H](CCCCN)C(=O)N[C@@H](Cc2c[nH]c3ccccc23)C(=O)N[C@@H](CC(C)C)C(=O)N[C@H](C(=O)N[C@@H](CCCCN)C(N)=O)C(C)C)NC(=O)[C@H](C(C)C)NC(=O)CNC(=O)[C@H](CCCCN)NC1=O)[C@@H](C)O` (Ac-TLKQF[S5]KGV[Nle(6-ylidene)]KWLVK-NH2; staple (Z) 6-10) as the compound, how does the MIC (Bacillus spizizenii) read?
Answer: 3.13 µg/mL (≈ 1.69 µM)

Question: What about the MIC (Klebsiella pneumoniae) of the same compound?
Answer: > 200 µg/mL

Question: What about the half-life at 0.09 µM [3] of the same compound?
Answer: 1.2 h

Question: What about the remaining at 1 h, 0.09 µM [4] of the same compound?
Answer: > 90%

Question: And the MIC (Salmonella typhimurium)?
Answer: > 200 µg/mL

Question: And the MIC (Proteus mirabilis)?
Answer: > 200 µg/mL

Question: And the MIC (Escherichia coli)?
Answer: > 200 µg/mL

Question: What about the MIC (Pseudomonas aeruginosa) of the same compound?
Answer: > 200 µg/mL

Question: And the MIC (Staphylococcus aureus)?
Answer: 3.13 µg/mL (≈ 1.69 µM)

Question: And the MIC [2]?
Answer: > 200 µg/mL

Question: And the MIC (Shigella dysenteriae)?
Answer: > 200 µg/mL
